Data reported in US20200040326A1, “METHOD FOR PROVIDING A DNA-ENCODED LIBRARY, DNA-ENCODED LIBRARY AND METHOD OF DECODING A DNA-ENCODED LIBRARY” (TU Dresden, priority 2018, published 2020).

Biological target: enzyme carbonic anhydrase II (Homo sapiens, UniProt P00918)
Settings: substance as DNA conjugate within the DEL; primer pairs 1a/1b (whole library), 2a/2b (CBS), 3a/3b (Theo); small ΔCq reflects large enrichment

Cn1cnc2c1c(=O)[nH]c(=O)n2C [Theo, theobromine]
enrichment after selection (from ΔCq, difference in qPCR cycle before and after selection): not enriched
